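In this assay, cells in 96-well plates receive the compound at five concentrations for 48 hours. Endpoints are linearly interpolated between the surrounding concentrations. TGI denotes the concentration required for complete inhibition of growth.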
Tests used:
Assay in all cases: NCI-60 cell line screen, 48 h
SNB-19 CNS = test system: SNB-19 CNS
IGROV1 ovarian = test system: IGROV1 ovarian
MCF7 breast = test system: MCF7 breast
T-47D breast = test system: T-47D breast
HCT-116 colon = test system: HCT-116 colon
UACC-62 melanoma = test system: UACC-62 melanoma
NCI-H460 lung = test system: NCI-H460 lung
OVCAR-8 ovarian = test system: OVCAR-8 ovarian
OVCAR-3 ovarian = test system: OVCAR-3 ovarian
TK-10 renal = test system: TK-10 renal
M14 melanoma = test system: M14 melanoma
NCI-H23 lung = test system: NCI-H23 lung
BT-549 breast = test system: BT-549 breast
UACC-257 melanoma = test system: UACC-257 melanoma
MDA-MB-435 = test system: MDA-MB-435
NCI-H226 lung = test system: NCI-H226 lung
MALME-3M melanoma = test system: MALME-3M melanoma
SK-MEL-5 melanoma = test system: SK-MEL-5 melanoma
MDA-N = test system: MDA-N
NCI-H522 lung = test system: NCI-H522 lung

SMILES	TGI (SNB-19 CNS) [µM]	TGI (IGROV1 ovarian) [µM]	TGI (MCF7 breast) [µM]	TGI (T-47D breast) [µM]	TGI (HCT-116 colon) [µM]	TGI (UACC-62 melanoma) [µM]	TGI (NCI-H460 lung) [µM]	TGI (OVCAR-8 ovarian) [µM]	TGI (OVCAR-3 ovarian) [µM]	TGI (TK-10 renal) [µM]	TGI (M14 melanoma) [µM]	TGI (NCI-H23 lung) [µM]	TGI (BT-549 breast) [µM]	TGI (UACC-257 melanoma) [µM]	TGI (MDA-MB-435) [µM]	TGI (NCI-H226 lung) [µM]	TGI (MALME-3M melanoma) [µM]	TGI (SK-MEL-5 melanoma) [µM]	TGI (MDA-N) [µM]	TGI (NCI-H522 lung) [µM]
CC(=O)O[C@H]1C(=O)[C@@]2(C)[C@H]([C@H](OC(=O)c3ccoc3)[C@]3(O)C[C@H](OC(=O)[C@H](O)[C@@H](NC(=O)c4ccccc4)c4ccccc4)C(C)=C1C3(C)C)[C@]1(OC(C)=O)CO[C@@H]1C[C@@H]2O	> 12.5	> 12.5	> 12.5	> 12.5	0.366	> 12.5	> 3.73	> 12.5	0.752	> 12.5	> 12.5	> 12.5	> 12.5	> 12.5	0.0236					
Cc1ccc([N+](=O)[O-])c2c(NCCC[N+](C)(C)[O-])c3ccccc3nc12	6.56	> 23.9	7.66	7	5	3.4	5.14	49.1	> 41.3	80.5	7.42	3.41	4.81	6.11	5.15	5.17	2.78	2.46		
O=c1cc(-c2ccc(Oc3ccccc3)cc2)[nH]c2cc3c(cc12)OCO3	> 100	> 100			> 100	> 100	> 100	> 100	> 100	> 100	> 100	> 100		> 100		> 100	> 100	> 100		
O=C(/C=C/c1ccc2ccccc2c1)NCc1ccc(C(=O)NCCc2ccccc2)cc1	> 100		> 100	> 100	> 100	> 100	> 100	> 100	> 100		> 100	> 100		> 100	> 100	> 100		> 100	> 100	
CCOC(=O)CC(C)C1(C(=O)OCC)CCCCC1=O (configuration not stated)	> 100	> 100			> 100	> 100	> 100	> 100	> 100	> 100	> 100			> 100		> 100	> 100	> 100		> 100
CC(C)OC(=O)/C=C/C(=O)O/C=C/[N+](=O)[O-]	> 100	63	54.9	46.4	54.3	84.7	> 100	> 100	> 100	> 100	> 100	> 100	90.4	> 100	> 100	> 100	63.7	> 100		
COc1cc(Br)cc2cc(-c3cn4c(n3)sc3ccccc34)c(=O)oc12	> 75	34.9	> 75		> 75	> 75	> 75	> 75	54.5	> 75	> 75	> 75	70.7	> 75	> 75			> 75		28.7
CC(=O)O[C@H]1C(=O)[C@@]2(C)C(C(OC(=O)c3ccccc3)[C@]3(O)CC(OC(=O)C(O)C(NC(=O)c4ccc(C(F)(F)F)cc4)c4ccccc4)C(C)=C1C3(C)C)[C@]1(OC(C)=O)CO[C@@H]1C[C@@H]2O (some centres not stated)	> 37.5	> 37.5			0.196	0.269	0.783	2.44	0.194	> 37.5	0.485	1.06		> 37.5		4.96	13.7	3.8		0.2
COC(=O)CC1N=C(NC#N)N(CCc2c[nH]c3ccccc23)C1=O (configuration not stated)	> 100	> 100			> 100	> 100	> 100	> 100	> 100	> 100	> 100	> 100		> 100		> 100		> 100		
Cn1c(O)c(C(=O)NC2CCCCC2)c(=O)n(C)c1=S	71.2	27.8				14.4	21.9	17.9	26.6	33.3	21.4	14.5		28.5		30.5		17		16.9
CC1(C)/C(=C/N=O)N(O)C(C)(C)N1O	> 100	> 100	> 100	> 100	> 100	> 100	> 100	> 100	> 100	> 100	> 100	> 100		> 100	54.5	> 100	> 100	> 100	> 100	
CC1(C)C[C@@H]2C1CCC1(C)CC2(O)CC[C@H]1O (some centres not stated)	> 100	> 100	> 100	> 100		> 100	> 100	> 100	> 100	> 100	> 100	> 100	> 100	> 100	> 100	> 100	> 100	> 100		> 100
Nc1nc([O-])c2c(n1)[n+](C1OC(CO)C(O)C1O)cn2CCO (configuration not stated)		> 100			> 100	> 100	> 100	> 100	> 100	> 100	> 100			> 100		> 100	> 100	> 100		> 100
CCOC(C)O[C@H]1C(=O)OCC1(C)C (some centres not stated)	> 100	> 100	> 100	> 100		> 100	> 100	> 100	> 100	> 100	> 100	> 100		> 100	> 100	> 100	> 100	> 100	> 100	

— PubChem BioAssay (NCI)
